Columns and labels:
high-fat diet mice [1] = assay: anti-obesity experiment (PDT, body weight of mice fed with high-fat diet); type: in vivo, C57 Black mice; details: group 5: HFD + 2.5 mg/kg intraperitoneally + high-level LED irradiation (4.96 mW/cm^2, 10 min, 2.98 J/cm^2); compared with group 4 (low-level LED) and group 1 (HFD); FIG. 2
Method: (§1) 6-week-old C57 Black mice were purchased and were fed with normal diet for a week of environmental adaptation.
(§2) After feeding with normal diet for a week, these mice were randomly divided into 7 groups and tested. The body weight thereof was measured periodically (three times per week), and an anti-obesity experiment was conducted when the body weight was about 20% more than the initial body weight. The anti-obesity experiment was as follows.
For group 1, only high-fat diet (HFD) was provided and the body weight was periodically measured (HFD).
For group 2, only high-fat diet (HFD) was provided and the body weight was periodically measured, and the mice were placed in an LED-illuminated cage when the body weight thereof was about 20% or more than the initial body weight, followed by irradiation with low-level LED light.
For group 3, only high-fat diet (HFD) was provided and the body weight was periodically measured, and the mice were placed in an LED-illuminated cage when the body weight thereof was about 20% or more than the initial body weight, followed by irradiation with high-level LED light.
For group 4, only high-fat diet (HFD) was provided and the body weight was periodically measured, and when the body weight was about 20% or more than the initial body weight, trisodium Chlorin e6 (2.5 mg/kg) was dissolved in 200 μl of a saline solution and administered intraperitoneally. […]

high-fat diet mice [2] = assay: lipid production and examination of non-alcoholic steatohepatitis (morphological examination of liver); type: in vivo, C57 Black mice; details: FIG. 3
Method: as §1, §2
For group 4, only high-fat diet (HFD) was provided and the body weight was periodically measured, and when the body weight was about 20% or more than the initial body weight, trisodium Chlorin e6 (2.5 mg/kg) was dissolved in 200 μl of a saline solution and administered intraperitoneally. After intraperitoneal administration thereof, the mice were allowed to adapt to a dark room for 3 hr and then placed in an LED-illuminated cage, followed by irradiation with low-level LED light.
For group 5, only high-fat diet (HFD) was provided and the body weight was periodically measured, and when the body weight was about 20% or more than the initial body weight, trisodium Chlorin e6 (2.5 mg/kg) was dissolved in 200 μl of a saline solution and administered intraperitoneally. […]

mice = assay: toxicity detection (shape of whole body and internal organs after dissection); type: in vivo
Method: The mice treated with Chlorin e6 were tested for potential toxicity by observing the shape of the internal organs through dissection after killing.
The main concern in the development of medicaments or therapies is safety, and the safe use of medicaments means to effectively treat the disease with minimal or no toxicity in the body or parts of the body. Therefore, in the present experiment, the toxic effects of drugs and LED irradiation were examined. After the mice were dissected, the whole body and internal organs were examined in order to verify toxicity. […] It was observed that the liver was normal other than the fatty liver observed in the groups treated with HFD alone and LED alone (FIG. 6).

trisodium Chlorin e6
weight loss / reduction of percentage of weight gain (high-fat diet mice [1]): the most effective group | non-alcoholic steatohepatitis (NASH) (high-fat diet mice [2]; group 4: HFD + 2.5 mg/kg intraperitoneally + low-level LED irradiation (2.56 mW/cm^2, 5 min, 0.77 J/cm^2)): alleviated | non-alcoholic steatohepatitis (NASH) (high-fat diet mice [2]; group 5: HFD + 2.5 mg/kg intraperitoneally + high-level LED irradiation): alleviated | toxicity during treatment (mice; Chlorin e6 and LED irradiation in mice): Toxicity was not observed | internal organs after dissection (mice; mouse, in vivo): no bleeding, color change or gangrene in the intestines was observed

Reference: patent US20200297847A1, “Pharmaceutical Composition For Treating Obesity Induced By High Fat Diet And Non-Alcoholic Fatty Liver Disease By Using Trisodium Chlorin E6 Photosensitizer” (DONG SUNG PHARM. CO., LTD., priority 2017, published 2020)
